Here are results for 2 compounds from patent publication US7348329B2, “Therapeutic agent for keratoconjunctival disorder” (Santen Pharmaceutical Co., Ltd., priority 2003, dated 2008).

This experiment concerns corneal damage in corneal disorder models. Put plainly: Test for therapeutic effect on corneal damage (corneal disorder model, exorbital lacrimal gland removed). In kind it is in vivo, male SD rats. As to conditions: for Effect on corneal damage (in words): male SD rat corneal disorder model; for Effect on corneal damage (in words) / Improvement ratio (%): 0.02% eye drops 6 times a day for 7 days; for Improvement ratio (%) / Mean value of total scores (fluorescein staining of upper, middle and lower parts of the cornea): male SD rat; for Improvement ratio (%): {(control)-(compound)}/{(control)-(normal eye)}x100, control = 0%; for Mean value of total scores (fluorescein staining of upper, middle and lower parts of the cornea): 0.02% in physiological saline instilled into both eyes 6 times a day for 7 days, scored 7 days after start, mean of 8 eyes, each part scored 0-3. On the procedure:
Test for Therapeutic Effect on Corneal Damage
Using male SD rats, in accordance with the method of Fujihara et al. (Invest. Ophthalmol. Vis. Sci. 42 (1): 96-100 (2001)), corneal disorder models were produced. After the production of the corneal disorder models, the improvement ratio of a corneal damage was evaluated according to the method of Murakami et al. (journal of the eye 21 (1): 87-90 (2004))
A male SD rat was systemically anesthetized by an administration of Nembutal. Subsequently the exorbital lacrimal gland was removed and a corneal damage was induced over a period of 2 months.
Then, 5-[4-[[3-methyl-4-oxo-3,4-dihydro-2-quinazolinyl]methoxy]phenylmethyl]thiazolidine-2,4-dione (Compound A) or N-[(4-methoxyphenoxy)carbonyl]-N-[[4-[2-(5-methyl-2-phenyl-4-oxazolyl)ethoxy]phenyl]methyl]glycine (Compound B) was administered as follows.
A physiological saline solution of Compound A (0.02%) was instilled into both eyes 6 times a day for 7 days (one group consisting of 4 animals, 8 eyes).
A physiological saline solution of Compound B (0.02%) was instilled into both eyes 6 times a day for 7 days (one group consisting of 4 animals, 8 eyes).
In a control group, physiological saline was instilled into both eyes 6 times a day for 7 days (one group consisting of 4 animals, 8 eyes).
Seven days after the start of instillation, the damaged parts of the cornea were stained with fluorescein. For each of the upper, middle and lower parts of the cornea, the degree of fluorescein staining was evaluated by scoring according to the criteria shown below and the mean value of the total scores for each of the above-mentioned parts was calculated.
Further, the mean value of the total scores for the normal eye was also calculated.
• 0: No punctate staining • 1: Scattered staining (punctate, separated staining) • 2: Moderate staining(a part of punctate staining being adjacent) • 3: Heavy staining (punctate, barely separated staining) (Results)
By taking the mean value of the total scores for the control group (physiological saline) as a reference (improvement ratio: 0%), the calculation was carried out according to the calculation formula shown below. Each of the improvement ratios for the Compound A administered group and the Compound B administered group are shown in Table 1 and Table 2. The mean value of the scores is a mean of those of 8 cases, respectively. Improvement ratio (%)={(control)−(the present compound)}/damage degree×100 Damage degree=(control)−(normal eye)

As for `Cn1c(COc2ccc(CC3SC(=O)NC3=O)cc2)nc2ccccc2c1=O` (stereo not drawn) [Compound A, 5-[4-[[3-methyl-4-oxo-3,4-dihydro-2-quinazolinyl]methoxy]phenylmethyl]thiazolidine-2,4-dione], the “Effect on corneal damage (in words)” value is recorded as “significantly improve a corneal damage”; the “Improvement ratio (%)” value is 40.0%; the “Mean value of total scores (fluorescein staining of upper, middle and lower parts of the cornea)” value was 4.8.

For the compound `COc1ccc(OC(=O)N(CC(=O)O)Cc2ccc(OCCc3nc(-c4ccccc4)oc3C)cc2)cc1` [Compound B, N-[(4-methoxyphenoxy)carbonyl]-N-[[4-[2-(5-methyl-2-phenyl-4-oxazolyl)ethoxy]phenyl]methyl]glycine], the “Effect on corneal damage (in words)” value was “significantly improve a corneal damage”; the “Improvement ratio (%)” value was determined as 42.3%; the “Mean value of total scores (fluorescein staining of upper, middle and lower parts of the cornea)” value is on record as 5.2.
